# Where two headings read alike, the source gives them in different places.
# What was measured:
# [1] = In vitro stability in PBS; format: physicochemical; conditions: 3.7 MBq in 0.5 mL PBS, 37 °C (results; method: room temperature), radio-TLC or radio-HPLC
# Description: The stability of [^18F]AlF-NOTA-ADH-1 was tested in PBS and bovine serum. In brief, 3.7 MBq of[^18F]AlF-NOTA-ADH-1 was pipetted into 0.5 mL of PBS and incubated in PBS at room temperature or bovine serum at 37°C. For the study, an aliquot of the solution was directly taken at 1, 6, and 8 h after incubation, and the radiochemical purity was determined by radio-TLC or radio-HPLC under identical conditions.
# SW480 tumor xenografts = format: in vivo, BALB/c nu/nu mice; conditions: SW480 xenograft nude mice, n=5, mean±SD
# Description: (§1) All animal experiments were performed in accordance with and approved by the Institutional Animal Care and Use Committee guidelines of the First Affiliated Hospital of Zhejiang University School of Medicine. BALB/c nu/nu mice (female, 20 ± 3 g, 4- to 6-week-old; Department of Laboratory Animal Science, Zhejiang University) were used in this study. The SW480 and BxPC3 xenografts were generated, and 5×10^6 tumor cells were subcutaneously injected into the flanks of female athymic nude mice. The PDX-bearing mouse models were established as follows. Pancreatic cancer (diagnosed as pancreatic ductal adenocarcinoma) tissues were obtained from the surgery of a patient. Written informed consent was obtained from the patient, and the research protocol was approved by the Clinical Research Ethics Committee of the First Affiliated Hospital of Zhejiang University School of Medicine. The sample was sectioned into about 1mm^3 pieces, and the tumor tissues were subcutaneously implanted into BALB/c nu/nu mice flanks. Mice were allowed free access to sterile water and food and were kept under strict disease-free conditions with controlled temperature (~25°C), humidity (50-70%), and circadian rhythms (12-hour light/dark cycles). All necessary procedures were carried out to minimize discomfort and avoid the waste of animals. The length and width of the tumor were measured every other day. Biodistribution studies and positron emission tomography in mice were performed after the tumor volume reached 150 to 200 mm^3.
# (§2) The BALB/c nude mice were randomized into different tumor models (SW480, BxPC3, and pancreatic PDX), including 5 mice per group. Each nude mouse was injected with 0.74MBq (20μCi) [^18F]AlF-NOTA-ADH-1 through the caudal vein. Blood was collected from the orbit, and the mice were dissected to collect the brain, heart, lung, liver, liver, spleen, stomach, intestine, muscle, bone and others at 30 min, […], 60min, 90min and 120min after injection. In the blocked group, the study was performed with a saturating dose of ADH-1 (20 mg/kg of mouse body weight) intravenously administered 60min before the intravenous injection of [^18F]AlF-NOTA-ADH-1 in the pancreatic PDX model and SW480 xenograft model. The mice in the tumor xenograft model were sacrificed 1h after [^18F]AlF-NOTA-ADH-1 injection. The nude mice were dissected, and tumor tissues and related tissues (blood, brain, heart, lung, liver, spleen, kidney, stomach, intestine, muscle and bone) were weighed, and their radioactivity was measured by γ-counter. The radioactivity results were recorded as % ID/g.
# in vivo = format: in vivo, BALB/c nu/nu mice; conditions: female, BALB/c nu/nu, mouse, in vivo, iv, total radioactivity
# Description: as §1, §2
# BxPC3 tumor xenografts = assay: in vivo; format: in vivo, BALB/c nu/nu mice; conditions: for T/Blood ratio / T/Muscle ratio / Tumor uptake: BxPC3 xenograft nude mice, n=5, mean±SD
# Description: as §1, §2
# [2] = blocking (ADH-1 20 mg/kg i.v. 60min before), 60min p.i.
# [3] = 0.74 MBq (20 uCi) per mouse, Kidney uptake
smiles,measurement,setting,value
CC(=O)N[C@H]1CSSC[C@@H](C(=O)NCCNC(=O)CN2CCN(CC(=O)O)CCN(CC(=O)O)CC2)NC(=O)[C@H](C(C)C)NC(=O)[C@H](C)NC(=O)[C@H](Cc2c[nH]cn2)NC1=O [[^18F]AlF-NOTA-ADH-1],Radiochemical purity after 8 h in PBS,[1],about 95.5%
same,T/Blood ratio,SW480 tumor xenografts; [2],3.96±0.33
same,T/Muscle ratio,SW480 tumor xenografts; [2],1.03±0.56
same,Tumor uptake,SW480 tumor xenografts; [2],1.07±0.57 %ID/g
same,T/Blood ratio,"SW480 tumor xenografts; non-blocking, 30min p.i.",5.77±0.13
same,T/Muscle ratio,"SW480 tumor xenografts; non-blocking, 30min p.i.",1.75±0.47
same,Tumor uptake,"SW480 tumor xenografts; non-blocking, 30min p.i.",1.73±0.11 %ID/g
same,T/Blood ratio,"SW480 tumor xenografts; non-blocking, 60min p.i.",7.42±1.01
same,T/Muscle ratio,"SW480 tumor xenografts; non-blocking, 60min p.i.",1.91±0.69
same,Tumor uptake,"SW480 tumor xenografts; non-blocking, 60min p.i.",2.08±1.64 %ID/g
same,T/Blood ratio,"SW480 tumor xenografts; non-blocking, 90min p.i.",9.6±0.76
same,T/Muscle ratio,"SW480 tumor xenografts; non-blocking, 90min p.i.",1.23±0.92
same,Tumor uptake,"SW480 tumor xenografts; non-blocking, 90min p.i.",0.96±0.15 %ID/g
same,T/Blood ratio,"SW480 tumor xenografts; non-blocking, 120min p.i.",6.08±0.35
same,T/Muscle ratio,"SW480 tumor xenografts; non-blocking, 120min p.i.",0.86±0.23
same,Tumor uptake,"SW480 tumor xenografts; non-blocking, 120min p.i.",0.73±0.67 %ID/g
same,tissue uptake at 1 h,in vivo; [3],10.2 ± 0.47 %ID/g
same,tissue uptake at 1.5 h,in vivo; [3],9.39 ± 0.75 %ID/g
same,tissue uptake at 2 h,in vivo; [3],6.61 ± 0.87 %ID/g
same,tissue uptake at 0.5 h,"in vivo; 0.74 MBq, Muscle uptake",1.03 ± 0.4 %ID/g
same,tissue uptake at 0.5 h,"in vivo; 0.74 MBq, Pancreas uptake",0.23 ± 0.08 %ID/g
same,tissue uptake at 1 h,"in vivo; 0.74 MBq, Pancreas uptake",0.61 ± 0.09 %ID/g
same,tissue uptake at 1.5 h,"in vivo; 0.74 MBq, Pancreas uptake",0.49 ± 0.23 %ID/g
same,tissue uptake at 2 h,"in vivo; 0.74 MBq, Pancreas uptake",0.65 ± 0.11 %ID/g
same,Tumor tissue uptake,BxPC3 tumor xenografts; BxPC3 tumor model,no significant uptake
same,T/Blood ratio,BxPC3 tumor xenografts; 30min p.i.,3.18± 0.08
same,T/Muscle ratio,BxPC3 tumor xenografts; 30min p.i.,0.86±0.21
same,Tumor uptake,BxPC3 tumor xenografts; 30min p.i.,0.89±0.12 %ID/g
same,T/Blood ratio,BxPC3 tumor xenografts; 60min p.i.,4.22±0.23
same,T/Muscle ratio,BxPC3 tumor xenografts; 60min p.i.,0.96±0.32
same,Tumor uptake,BxPC3 tumor xenografts; 60min p.i.,1.07±0.36 %ID/g
same,T/Blood ratio,BxPC3 tumor xenografts; 90min p.i.,5.45±0.10
same,T/Muscle ratio,BxPC3 tumor xenografts; 90min p.i.,0.66±0.19
same,Tumor uptake,BxPC3 tumor xenografts; 90min p.i.,0.60±0.12 %ID/g
same,T/Blood ratio,BxPC3 tumor xenografts; 120min p.i.,1.42±0.13
same,T/Muscle ratio,BxPC3 tumor xenografts; 120min p.i.,0.63±0.23
same,Tumor uptake,BxPC3 tumor xenografts; 120min p.i.,0.37±0.07 %ID/g

# Source: paper PMC10239968, “[^18F]AlF-NOTA-ADH-1: A new PET molecular radiotracer for imaging of N-cadherin-positive tumors” (Frontiers in Oncology, 2023)
